Experimental data reported in US20230200388A1, “COMPOUNDS AND METHODS FOR STIMULATING PLANTS” (Sound Agriculture Company, priority 2020, published 2023).

Tests used:
Type in all cases: cell-based
[1] = tested on: nifHpro::luciferase Azotobacter vinelandii reporter line; test: Nitrogenase (nifH) activity with nifHpro::luciferase Azotobacter vinelandii reporter line; conditions: 10 μM to 0.001 μM in DMSO, 21 hours, over controls, n=9 experiments, FIG. 6
Description: Gibson Assembly was used to clone the luciferase gene (ordered from IDT) into pE_Gm and LR into pVSP61 (plasmids provided by Doug Dahlbeck at Staskawicz Lab, UC Berkeley). Standard triparental mating was used with pRK600 (provided by Doug Dahlbeck at Staskawicz Lab, UC Berkeley) to obtain the final reporter strain of Azotobacter vinelandii transformed with reporter plasmid.
nifHpro::luciferase Azotobacter vinelandii were grown for 24 hours in 50 mL liquid Burks —N media (HiMedia Laboratories) with 1 ng/μL Kanamycin, shaking at 100 RPM under lights at ˜30° C. After 24 hours, supernatant was spun down 12000 G for two minutes to collect cells. After supernatant was removed, cells were washed with cleared Burks —N liquid media supernatant, resuspended, and centrifuged again at 12000 G. This process was repeated, for a total of two washes.
Resuspended cells were combined with Burks —N media with 1 ng/μL Kanamycin, to obtain a fresh culture at OD 0.1. 50 mL shake flasks were then inoculated with 5 mL of this culture, plus appropriate chemistry, in the scheme that follows. A stock solution of Quercetin was made in DMSO. […]
After 21 hours, 50 mL flasks were removed from the shaker. […] Plates were inserted into plate reader and luminescence of each well was analyzed.

[2] = tested on: soil's native microbial community; test: Phosphate solubilization in soil consortia (soil as inoculum in NBRIP media); conditions: relative to soil not contacted with QC
Source text: To determine if a test compound, QC, alters phosphate solubilization in a soil's native microbial community, dried and sieved soil was used as a bacterial inoculum in NBRIP media with and without QC.

[3] = tested on: nifHpro::luciferase Azotobacter vinelandii reporter strain; test: nifHpro::luciferase bioreporter assay for nitrogen fixation; conditions: 1 μM, 24 h, relative to control bacteria not contacted
Description: Three hundred base pairs upstream of the ATG of the nifHDK of Azotobacter vinelandii (nifHipro) was cloned in frame, upstream of luciferase in pVSP61 (kanR). Azotobacter vinelandii (Lipman ATCC® BAA-1303) was transformed with the reporter plasmid with triparental mating, Transformants were selected for on nitrogen-free kanamycin plates and confirmed with PCR and sequencing.
Five milliliters of nifHpro::luciferase Bioreporter strain #171 was grown overnight in autoclaved, nitrogen-free medium (Burks, HiMedia M707) at starting OD600=0.02 with 1 ug/mL Kanamycin in sterile 50 mL flasks. Chemical treatments were dissolved in 100% EtOH and added at appropriate concentrations, keeping the volume constant. The solvent was no more than 2% of the final culture volume, and solvent only controls were included in each experiment.
After 24 h, the growth density each culture was read in a clear, flat-bottomed microplate by adding 180 μl to each well (flasks were measured in triplicate) and measuring absorbance at 600 nm in a microplate reader. […]
The luminescence of each well was read on an iD3 plate reader (Molecular Devices). Luminescence of each well (reported as RLU, Relative Light Unit) was divided by its OD600 in order to adjust for culture density.

Structure (SMILES)	activation of nifHpro::luciferase bioreporter (nitrogenase gene expression) [1]	amount of detectable orthophosphate in the growth media of soil-inoculated cultures [2]	luminescence (nitrogen fixation) [3]
O=c1c(O)c(-c2ccc(O)c(O)c2)oc2cc(O)cc(O)c12 [Formula Id]	activated		
O=c1c(O)c(-c2ccc(O)c(O)c2)oc2cc(O)cc(O)c12 [QC, quercetin]		increased	significant increase
